# Laboratory results as given in patent US20240325398A1, “COMBINATION THERAPIES” (Infinity Pharmaceuticals, Inc., priority 2014, published 2024).
# Experiments:
# SU-DHL-10-epst = assay: Combination study, ATPLite 72 h, dose matrix (Synergy Score, CI50)
# SU-DHL-4-epst = assay: as above
# Farage = assay: as above; conditions: Farage
# SUDHL6 = assay: Compound 1 with dexamethasone, CellTiter-Glo viability 72 h, combination index; format: cell-based; conditions: SUDHL6
# Procedure: The effects of Compound 1 with dexamethasone were examined in a panel of cell lines. Cells were cultured and assayed as follows. Compound 1 was serially diluted with cell culture medium and various DMSO concentrations. The top concentration of Compound 1 exposed to cells was 3 uM for cell lines other than WSU-NHL and DOHH2. For WSU-NHL and DOHH2 cell lines, the top concentration of Compound 1 exposed to the cells was 0.3 uM. Dexamethasone was serially diluted in culture media and phosphate buffered saline (PBS). The top concentration of dexamethasone used on cells was 3 uM. Cells were at least 73% viable and were counted and diluted for plating at a density of about 92,000 cell/mL, 130 uL cells per well in 96 well plates for SUDHL6, Karpas 422, SUDHL4, WSU-NHL, RL, and DOHH2 cell lines. The SUDHL10 cell line was plated at a density of about 46,000 cells/mL, 130 uL cells per well in 96 well plates.
# Various concentrations of Compound 1 and various combinations of dexamethasone were added to various wells of cells. Single agents (Compound 1 or dexamethasone alone) were also added to some wells of cells. Cells were incubated with compounds for 72 hours. To assay for effects of the compounds on cell viability, a CellTiter-Glo® luminescent cell viability assay (commercially available) was used. To each plate of cells, 100 uL CellTiter-Glo reagent was added, incubated, and luminescence quantified using a […].
# The result for cell line SUDHL6 is depicted in FIG. 12 and in Table 12. […] Table 12 depicts combination index (CI) values for different combinations of dexamethasone/Compound 1 concentrations.
smiles,measurement,setting,value
"C[C@H](Nc1ncnc2[nH]cnc12)c1cc2cccc(Cl)c2c(=O)n1-c1ccccc1 [Compound 1, (S)-3-(1-((9H-purin-6-yl)amino)ethyl)-8-chloro-2-phenylisoquinolin-1(2H)-one]",CI50 growth inhibition,SU-DHL-10-epst; combination with Dexamethasone,S (S=0.01 to <0.5)
same,CI50 inhibition,SU-DHL-10-epst; combination with Dexamethasone,S (S=0.01 to <0.5)
same,Synergy Score growth inhibition,SU-DHL-10-epst; combination with Dexamethasone,A3 (A3=>3)
same,Synergy Score inhibition,SU-DHL-10-epst; combination with Dexamethasone,A3 (A3=>3)
same,CI50 growth inhibition,SU-DHL-10-epst; combination with LEE011,S (S=0.01 to <0.5)
same,CI50 inhibition,SU-DHL-10-epst; combination with LEE011,S (S=0.01 to <0.5)
same,Synergy Score growth inhibition,SU-DHL-10-epst; combination with LEE011,A3 (A3=>3)
same,Synergy Score inhibition,SU-DHL-10-epst; combination with LEE011,A3 (A3=>3)
same,CI50 growth inhibition,SU-DHL-10-epst; combination with PCI-32765,S (S=0.01 to <0.5)
same,CI50 inhibition,SU-DHL-10-epst; combination with PCI-32765,S (S=0.01 to <0.5)
same,Synergy Score growth inhibition,SU-DHL-10-epst; combination with PCI-32765,A3 (A3=>3)
same,Synergy Score inhibition,SU-DHL-10-epst; combination with PCI-32765,A3 (A3=>3)
same,CI50 growth inhibition,SU-DHL-10-epst; combination with PD-0332991,S (S=0.01 to <0.5)
same,CI50 inhibition,SU-DHL-10-epst; combination with PD-0332991,S (S=0.01 to <0.5)
same,Synergy Score growth inhibition,SU-DHL-10-epst; combination with PD-0332991,A3 (A3=>3)
same,Synergy Score inhibition,SU-DHL-10-epst; combination with PD-0332991,A3 (A3=>3)
same,CI50 growth inhibition,SU-DHL-4-epst; combination with Dexamethasone,S (S=0.01 to <0.5)
same,CI50 inhibition,SU-DHL-4-epst; combination with Dexamethasone,S (S=0.01 to <0.5)
same,Synergy Score growth inhibition,SU-DHL-4-epst; combination with Dexamethasone,A3 (A3=>3)
same,Synergy Score inhibition,SU-DHL-4-epst; combination with Dexamethasone,A3 (A3=>3)
same,CI50 growth inhibition,SU-DHL-4-epst; combination with LEE011,S (S=0.01 to <0.5)
same,CI50 inhibition,SU-DHL-4-epst; combination with LEE011,S (S=0.01 to <0.5)
same,Synergy Score growth inhibition,SU-DHL-4-epst; combination with LEE011,A2 (A2=1 to <3)
same,Synergy Score inhibition,SU-DHL-4-epst; combination with LEE011,A2 (A2=1 to <3)
same,CI50 growth inhibition,SU-DHL-4-epst; combination with PCI-32765,S (S=0.01 to <0.5)
same,CI50 inhibition,SU-DHL-4-epst; combination with PCI-32765,S (S=0.01 to <0.5)
same,Synergy Score growth inhibition,SU-DHL-4-epst; combination with PCI-32765,A3 (A3=>3)
same,Synergy Score inhibition,SU-DHL-4-epst; combination with PCI-32765,A3 (A3=>3)
same,CI50 growth inhibition,SU-DHL-4-epst; combination with PD-0332991,S (S=0.01 to <0.5)
same,CI50 inhibition,SU-DHL-4-epst; combination with PD-0332991,S (S=0.01 to <0.5)
same,Synergy Score growth inhibition,SU-DHL-4-epst; combination with PD-0332991,A3 (A3=>3)
same,Synergy Score inhibition,SU-DHL-4-epst; combination with PD-0332991,A2 (A2=1 to <3)
same,CI50 growth inhibition,Farage; combination with Dexamethasone,U (U=0.7 to <1)
same,CI50 inhibition,Farage; combination with Dexamethasone,S (S=0.01 to <0.5)
same,Synergy Score growth inhibition,Farage; combination with Dexamethasone,A3 (A3=>3)
same,Synergy Score inhibition,Farage; combination with Dexamethasone,A3 (A3=>3)
same,CI50 growth inhibition,Farage; combination with LEE011,W (W=≥1)
same,CI50 inhibition,Farage; combination with LEE011,W (W=≥1)
same,Synergy Score growth inhibition,Farage; combination with LEE011,A1 (A1=0.0001 to <1)
same,Synergy Score inhibition,Farage; combination with LEE011,A1 (A1=0.0001 to <1)
same,CI50 growth inhibition,Farage; combination with PCI-32765,S (S=0.01 to <0.5)
same,CI50 inhibition,Farage; combination with PCI-32765,S (S=0.01 to <0.5)
same,Synergy Score growth inhibition,Farage; combination with PCI-32765,A3 (A3=>3)
same,Synergy Score inhibition,Farage; combination with PCI-32765,A3 (A3=>3)
same,CI50 growth inhibition,Farage; combination with PD-0332991,T (T=0.5 to <0.7)
same,CI50 inhibition,Farage; combination with PD-0332991,S (S=0.01 to <0.5)
same,Synergy Score growth inhibition,Farage; combination with PD-0332991,A2 (A2=1 to <3)
same,Synergy Score inhibition,Farage; combination with PD-0332991,A2 (A2=1 to <3)
same,combination index (CI),SUDHL6; Compound 1 1.4 nM + Dexamethasone 1.4 nM,E (E = >1)
same,combination index (CI),SUDHL6; Compound 1 1.4 nM + Dexamethasone 4.1 nM,E (E = >1)
same,combination index (CI),SUDHL6; Compound 1 1.4 nM + Dexamethasone 12.3 nM,E (E = >1)
same,combination index (CI),SUDHL6; Compound 1 1.4 nM + Dexamethasone 37 nM,E (E = >1)
same,combination index (CI),SUDHL6; Compound 1 1.4 nM + Dexamethasone 111.1 nM,A (A = 0.0001 to <0.3)
same,combination index (CI),SUDHL6; Compound 1 1.4 nM + Dexamethasone 333.3 nM,A (A = 0.0001 to <0.3)
same,combination index (CI),SUDHL6; Compound 1 1.4 nM + Dexamethasone 1000 nM,A (A = 0.0001 to <0.3)
same,combination index (CI),SUDHL6; Compound 1 1.4 nM + Dexamethasone 3000 nM,A (A = 0.0001 to <0.3)
same,combination index (CI),SUDHL6; Compound 1 4.1 nM + Dexamethasone 1.4 nM,E (E = >1)
same,combination index (CI),SUDHL6; Compound 1 4.1 nM + Dexamethasone 4.1 nM,B (B = 0.3 to <0.5)
same,combination index (CI),SUDHL6; Compound 1 4.1 nM + Dexamethasone 12.3 nM,E (E = >1)
same,combination index (CI),SUDHL6; Compound 1 4.1 nM + Dexamethasone 37 nM,C (C = 0.5 to <0.7)
same,combination index (CI),SUDHL6; Compound 1 4.1 nM + Dexamethasone 111.1 nM,A (A = 0.0001 to <0.3)
same,combination index (CI),SUDHL6; Compound 1 4.1 nM + Dexamethasone 333.3 nM,A (A = 0.0001 to <0.3)
same,combination index (CI),SUDHL6; Compound 1 4.1 nM + Dexamethasone 1000 nM,A (A = 0.0001 to <0.3)
same,combination index (CI),SUDHL6; Compound 1 4.1 nM + Dexamethasone 3000 nM,A (A = 0.0001 to <0.3)
same,combination index (CI),SUDHL6; Compound 1 12.3 nM + Dexamethasone 1.4 nM,E (E = >1)
same,combination index (CI),SUDHL6; Compound 1 12.3 nM + Dexamethasone 4.1 nM,E (E = >1)
same,combination index (CI),SUDHL6; Compound 1 12.3 nM + Dexamethasone 12.3 nM,E (E = >1)
same,combination index (CI),SUDHL6; Compound 1 12.3 nM + Dexamethasone 37 nM,E (E = >1)
same,combination index (CI),SUDHL6; Compound 1 12.3 nM + Dexamethasone 111.1 nM,A (A = 0.0001 to <0.3)
same,combination index (CI),SUDHL6; Compound 1 12.3 nM + Dexamethasone 333.3 nM,A (A = 0.0001 to <0.3)
same,combination index (CI),SUDHL6; Compound 1 12.3 nM + Dexamethasone 1000 nM,A (A = 0.0001 to <0.3)
same,combination index (CI),SUDHL6; Compound 1 12.3 nM + Dexamethasone 3000 nM,A (A = 0.0001 to <0.3)
same,combination index (CI),SUDHL6; Compound 1 37 nM + Dexamethasone 1.4 nM,E (E = >1)
same,combination index (CI),SUDHL6; Compound 1 37 nM + Dexamethasone 4.1 nM,E (E = >1)
same,combination index (CI),SUDHL6; Compound 1 37 nM + Dexamethasone 12.3 nM,E (E = >1)
same,combination index (CI),SUDHL6; Compound 1 37 nM + Dexamethasone 37 nM,E (E = >1)
same,combination index (CI),SUDHL6; Compound 1 37 nM + Dexamethasone 111.1 nM,A (A = 0.0001 to <0.3)
same,combination index (CI),SUDHL6; Compound 1 37 nM + Dexamethasone 333.3 nM,A (A = 0.0001 to <0.3)
same,combination index (CI),SUDHL6; Compound 1 37 nM + Dexamethasone 1000 nM,A (A = 0.0001 to <0.3)
same,combination index (CI),SUDHL6; Compound 1 37 nM + Dexamethasone 3000 nM,A (A = 0.0001 to <0.3)
